Assay results as given in ChEMBL document CHEMBL1201862, “PubChem BioAssay data set” (2004).
The source made the active and inactive calls.

How the values were obtained:
Cytochrome P450 2D6 = Cytochrome P450 2D6 (Homo sapiens, UniProt P10635); experiment: qHTS Assay for Inhibitors and Substrates of Cytochrome P450 2D6. [Related pubchem assays: 410 ]; format: ADME; details: read-out: Potency
[1] = reduction of Shn3 3'UTR-driven luciferase in osteoblasts – cell-based, Clone20 osteoblasts, firefly luciferase, cherry-picked, dose response (AID 624132); format: functional;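 further: firefly luciferase luminescence from reporter carrying the Shn3 3'UTR in osteoblasts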
[2] = fluconazole-exposed Candida albicans growth modulators – fluorescence, retest, confirmation (AID 2467); format: functional, cell-based
[3] = non-specific 3'UTR reporter inhibition in Clone20-Shn3RL – cell-based, Renilla luciferase, cherry-picked, counter-screen for Shn3 inhibitor project, dose response (AID 624133); format: functional
[4] = Luminescence-based dose response cell-based high throughput screening assay for cytotoxic compounds using the IEC-6 intestinal epithelial cell line. [Related pubchem assays: 1858 (Summary AID.), 1825 (Counterscreen.), 1907 (Confirmation screen.)]; format: functional
INS1 = experiment: INS-1E survival protection against cytokine death – cell-based, luminescence, retest, dose response (AID 449756); format: functional; details: Rattus norvegicus;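 further: cell death triggered by IL-1 beta plus TNF-alpha plus IFN-gamma mixture; protective hits raise ATP signal compared with cytokine alone wells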
[5] = Luminescence Cell-Based Dose Response HTS to Identify Inhibitors of 5'UTR Stem-Loop Driven Prion Protein mRNA Translation in H4 Neuroglioblastoma Cells. [Related pubchem assays: 1827 (Project Summary), 1813 (Primary HTS)]; format: functional
[6] = biological target: Sphingosine 1-phosphate receptor 2 (Homo sapiens, UniProt O95136); experiment: Dose Response Cell Based Assay for Antagonists of the S1P2 Receptor. [Related pubchem assays: 856, 736 ]; format: functional
Cytochrome P450 1A2 = biological target: T1, Cytochrome P450 1A2 (Homo sapiens, UniProt P05177);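 further: PubChem cytochrome P450 panel assay, CYP1A2 panel member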
T1 sequence (P05177 whole entry): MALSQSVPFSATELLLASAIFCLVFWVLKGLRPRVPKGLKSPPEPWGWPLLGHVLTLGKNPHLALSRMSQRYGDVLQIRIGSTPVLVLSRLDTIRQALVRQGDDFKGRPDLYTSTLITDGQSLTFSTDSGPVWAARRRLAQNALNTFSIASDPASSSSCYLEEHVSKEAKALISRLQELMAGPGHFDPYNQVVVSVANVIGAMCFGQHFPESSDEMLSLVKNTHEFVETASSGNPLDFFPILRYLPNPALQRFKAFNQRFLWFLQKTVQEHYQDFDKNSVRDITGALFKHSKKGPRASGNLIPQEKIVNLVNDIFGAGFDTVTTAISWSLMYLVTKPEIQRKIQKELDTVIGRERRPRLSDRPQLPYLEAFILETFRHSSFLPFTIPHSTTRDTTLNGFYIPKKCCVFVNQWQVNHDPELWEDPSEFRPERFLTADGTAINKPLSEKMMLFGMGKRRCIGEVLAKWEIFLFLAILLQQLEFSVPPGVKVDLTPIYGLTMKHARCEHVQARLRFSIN

Cytochrome P450 2C19 = Cytochrome P450 2C19 (Homo sapiens, UniProt P33261); experiment: Cytochrome panel assay with activity outcomes. Panel member name: p450-cyp2c19 Compounds with AC50 equal or less than 10 uM are considered active; format: functional; details: read-out: AC50
[7] = NIH-3T3 fibroblast cytotoxicity, dose response, cytotoxicity control, cell-based, fluorescence, Alamar Blue, secondary assay (AID 2327); format: functional;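 further: NIH-3T3 mouse fibroblasts cultured with fluconazole at 8 µg/mL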
[8] = HEK-293T viability loss after treatment – luminescence, T-cell screen hits, cytotoxicity control for TCR NF-kB inhibitor project, dose response (AID 489026); format: functional, cell-based;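 further: cells exposed to compound about 14 hours before the viability readout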
[9] = loss of viability in HepG2 cells – cell-based, CellTiter-Glo, cherry-picked, cytotoxicity control for Shn3 inhibitor project, dose response (AID 624134); format: functional
[10] = luciferase reporter signal suppression in cells – H4 neuroglioma cells, luminescence, dose response (AID 1990); format: functional, cell-based
Cytochrome P450 3A4 = Cytochrome P450 3A4 (Homo sapiens, UniProt P08684);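 further: CYP3A4 tested as one member of a cytochrome P450 panel screen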
[11] = alpha-synuclein stem-loop luciferase translation blockers – H4 neuroglioma cells, luminescence, confirmation (AID 1988); format: functional, cell-based
Hexokinase HKDC1 = biological target: T2, Hexokinase HKDC1 (Homo sapiens, UniProt Q2TB90); experiment: inhibition of HKDC1 glucose phosphorylation – biochemical, W721R variant, dose response (AID 504729); format: functional
T2 sequence (Q2TB90 whole entry): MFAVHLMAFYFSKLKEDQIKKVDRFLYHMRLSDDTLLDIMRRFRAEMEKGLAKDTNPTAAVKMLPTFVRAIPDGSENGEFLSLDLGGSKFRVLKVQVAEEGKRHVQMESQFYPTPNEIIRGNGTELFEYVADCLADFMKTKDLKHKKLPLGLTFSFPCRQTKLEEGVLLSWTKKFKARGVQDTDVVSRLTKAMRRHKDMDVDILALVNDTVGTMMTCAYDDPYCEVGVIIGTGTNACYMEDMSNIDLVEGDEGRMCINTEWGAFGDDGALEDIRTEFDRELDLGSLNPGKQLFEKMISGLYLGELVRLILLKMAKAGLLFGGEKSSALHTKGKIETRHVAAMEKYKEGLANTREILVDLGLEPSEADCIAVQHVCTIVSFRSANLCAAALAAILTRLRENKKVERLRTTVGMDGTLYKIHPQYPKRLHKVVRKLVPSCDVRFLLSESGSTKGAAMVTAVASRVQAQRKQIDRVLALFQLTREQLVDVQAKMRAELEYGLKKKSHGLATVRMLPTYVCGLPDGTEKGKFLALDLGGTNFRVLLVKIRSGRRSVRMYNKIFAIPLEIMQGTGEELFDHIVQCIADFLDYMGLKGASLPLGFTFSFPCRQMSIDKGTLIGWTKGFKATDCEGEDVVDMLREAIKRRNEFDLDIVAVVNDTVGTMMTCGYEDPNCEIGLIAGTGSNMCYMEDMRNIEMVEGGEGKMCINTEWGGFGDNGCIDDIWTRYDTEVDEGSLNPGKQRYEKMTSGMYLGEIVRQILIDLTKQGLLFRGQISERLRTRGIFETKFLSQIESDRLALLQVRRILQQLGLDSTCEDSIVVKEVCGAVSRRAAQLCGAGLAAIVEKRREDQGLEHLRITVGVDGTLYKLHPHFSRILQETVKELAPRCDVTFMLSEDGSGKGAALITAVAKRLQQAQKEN

[12] = A cytotoxicity screen of small molecule inhibitors of the PhoP region in Salmonella typhi identified in the primary screen. [Related pubchem assays: 1850, 1864, 1985 ]; format: functional
[13] = test system: Streptococcus sp. 'group A'; experiment: Streptococcus pyogenes SK(-)GAS viability under kanamycin – luminescence, BacTiterGlo, confirmation, counter-screen for streptokinase expression inhibitor project, dose response (AID 1900); format: functional, organism-based
Streptococcus = experiment: GAS UMAA2166 growth inhibition – luminescence, BacTiterGlo, counter-screen for streptokinase expression inhibitor project, dose response (AID 1915); format: functional, organism-based;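 further: potency for reduction of bacterial viability or growth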
[14] = Luminescence-based counterscreen assay for KLF5 inhibitors: dose response cell-based high throughput screening assay to identify cytotoxic compounds using the IEC-6 intestinal epithelial cell line. [Related pubchem assays: 1700 (Primary screen.), 1834 (Confirmation screen.), 1858 (Summary AID.), 1905 (Counterscreen.)]; format: functional
[15] = Trypanosoma cruzi growth suppression in host cells – NIH3T3 host cells, beta-gal luminescence, confirmation (AID 2044); format: functional, cell-based;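 further: intracellular parasites grown in NIH/3T3 mouse fibroblasts as host cells; luminescent beta-galactosidase reporter signal from transgenic T. cruzi replicating inside host cells; inhibitors lower the luminescence signal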
cells [16] = experiment: cells
[17] = NIH3T3 cell viability loss – ATP luminescence, mouse fibroblasts, counter-screen, dose response (AID 2010); format: functional, cell-based;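 further: cells exposed to compound for about 90 hours before reading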
[18] = A Cell Based Secondary Assay To Explore Cytotoxicity of Compounds that Sensitize Mycobacterium Tuberculosis to Beta-Lactam Antibiotics.; format: functional
[19] = biological target: Peroxisome proliferator-activated receptor gamma/Nuclear receptor coactivator 1 (Homo sapiens, UniProt P37231); format: functional;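 further: agonist potency as compounds enhance coactivator SRC-1 recruitment to PPARgamma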
Sequence of Peroxisome proliferator-activated receptor gamma/Nuclear receptor coactivator 1 (P37231 whole entry): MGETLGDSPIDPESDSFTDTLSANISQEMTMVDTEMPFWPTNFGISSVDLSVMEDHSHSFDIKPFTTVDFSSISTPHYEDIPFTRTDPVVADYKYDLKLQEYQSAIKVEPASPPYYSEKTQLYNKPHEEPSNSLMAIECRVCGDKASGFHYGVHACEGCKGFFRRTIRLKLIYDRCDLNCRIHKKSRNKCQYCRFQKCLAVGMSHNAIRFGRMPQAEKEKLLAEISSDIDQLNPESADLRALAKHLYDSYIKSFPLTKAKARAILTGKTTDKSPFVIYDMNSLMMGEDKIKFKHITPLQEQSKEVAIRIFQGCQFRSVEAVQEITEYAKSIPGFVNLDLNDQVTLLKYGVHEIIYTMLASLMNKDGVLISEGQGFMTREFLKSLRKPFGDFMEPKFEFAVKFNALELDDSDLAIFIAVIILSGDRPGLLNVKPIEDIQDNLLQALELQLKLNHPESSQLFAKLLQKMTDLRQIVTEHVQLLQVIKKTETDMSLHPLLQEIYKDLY
Sequence of Peroxisome proliferator-activated receptor gamma/Nuclear receptor coactivator 1 (Q15788 whole entry, further chain): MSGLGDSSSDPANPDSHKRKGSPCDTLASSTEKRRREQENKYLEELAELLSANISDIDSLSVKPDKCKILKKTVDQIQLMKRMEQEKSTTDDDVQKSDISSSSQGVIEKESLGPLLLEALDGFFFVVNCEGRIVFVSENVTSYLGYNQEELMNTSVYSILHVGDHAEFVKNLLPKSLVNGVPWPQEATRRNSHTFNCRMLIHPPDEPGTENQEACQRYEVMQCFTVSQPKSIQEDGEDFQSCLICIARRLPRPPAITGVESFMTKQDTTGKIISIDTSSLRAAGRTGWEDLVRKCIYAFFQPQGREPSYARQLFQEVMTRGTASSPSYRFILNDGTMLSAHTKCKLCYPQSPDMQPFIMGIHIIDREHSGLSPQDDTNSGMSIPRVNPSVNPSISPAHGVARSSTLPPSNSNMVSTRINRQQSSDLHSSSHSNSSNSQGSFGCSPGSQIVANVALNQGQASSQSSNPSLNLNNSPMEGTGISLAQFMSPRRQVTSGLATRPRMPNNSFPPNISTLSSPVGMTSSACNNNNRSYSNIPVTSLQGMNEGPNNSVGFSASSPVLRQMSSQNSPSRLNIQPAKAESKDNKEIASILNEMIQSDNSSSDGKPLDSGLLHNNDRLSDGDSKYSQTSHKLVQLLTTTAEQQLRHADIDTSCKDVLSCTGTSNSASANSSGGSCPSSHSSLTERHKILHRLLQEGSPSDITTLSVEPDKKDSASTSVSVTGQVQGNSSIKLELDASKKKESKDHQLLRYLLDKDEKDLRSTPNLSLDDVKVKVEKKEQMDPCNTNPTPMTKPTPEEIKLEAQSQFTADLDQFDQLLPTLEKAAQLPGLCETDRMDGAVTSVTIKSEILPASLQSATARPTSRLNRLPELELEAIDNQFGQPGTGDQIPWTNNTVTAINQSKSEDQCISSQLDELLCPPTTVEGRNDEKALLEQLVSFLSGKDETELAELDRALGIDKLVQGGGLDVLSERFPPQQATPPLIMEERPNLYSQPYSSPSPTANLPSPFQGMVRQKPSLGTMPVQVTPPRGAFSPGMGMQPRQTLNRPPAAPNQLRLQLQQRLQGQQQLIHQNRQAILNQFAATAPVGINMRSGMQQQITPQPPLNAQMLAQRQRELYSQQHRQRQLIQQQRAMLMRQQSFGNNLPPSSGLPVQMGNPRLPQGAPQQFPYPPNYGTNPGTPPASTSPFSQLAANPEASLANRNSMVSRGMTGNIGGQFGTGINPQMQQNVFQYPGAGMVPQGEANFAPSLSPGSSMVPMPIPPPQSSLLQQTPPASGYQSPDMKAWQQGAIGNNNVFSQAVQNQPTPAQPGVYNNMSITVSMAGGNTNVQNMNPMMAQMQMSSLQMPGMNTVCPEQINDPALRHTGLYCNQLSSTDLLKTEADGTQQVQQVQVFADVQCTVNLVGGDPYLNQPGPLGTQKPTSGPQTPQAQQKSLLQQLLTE

[20] = biological target: Peroxisome proliferator-activated receptor gamma/Nuclear receptor coactivator 3 (Homo sapiens, UniProt P37231); format: functional;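 further: agonist potency for raising coactivator recruitment to the receptor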
Sequence of Peroxisome proliferator-activated receptor gamma/Nuclear receptor coactivator 3 (P37231 whole entry): as the sequence (P37231 whole entry) above
Sequence of Peroxisome proliferator-activated receptor gamma/Nuclear receptor coactivator 3 (Q9Y6Q9 whole entry, further chain): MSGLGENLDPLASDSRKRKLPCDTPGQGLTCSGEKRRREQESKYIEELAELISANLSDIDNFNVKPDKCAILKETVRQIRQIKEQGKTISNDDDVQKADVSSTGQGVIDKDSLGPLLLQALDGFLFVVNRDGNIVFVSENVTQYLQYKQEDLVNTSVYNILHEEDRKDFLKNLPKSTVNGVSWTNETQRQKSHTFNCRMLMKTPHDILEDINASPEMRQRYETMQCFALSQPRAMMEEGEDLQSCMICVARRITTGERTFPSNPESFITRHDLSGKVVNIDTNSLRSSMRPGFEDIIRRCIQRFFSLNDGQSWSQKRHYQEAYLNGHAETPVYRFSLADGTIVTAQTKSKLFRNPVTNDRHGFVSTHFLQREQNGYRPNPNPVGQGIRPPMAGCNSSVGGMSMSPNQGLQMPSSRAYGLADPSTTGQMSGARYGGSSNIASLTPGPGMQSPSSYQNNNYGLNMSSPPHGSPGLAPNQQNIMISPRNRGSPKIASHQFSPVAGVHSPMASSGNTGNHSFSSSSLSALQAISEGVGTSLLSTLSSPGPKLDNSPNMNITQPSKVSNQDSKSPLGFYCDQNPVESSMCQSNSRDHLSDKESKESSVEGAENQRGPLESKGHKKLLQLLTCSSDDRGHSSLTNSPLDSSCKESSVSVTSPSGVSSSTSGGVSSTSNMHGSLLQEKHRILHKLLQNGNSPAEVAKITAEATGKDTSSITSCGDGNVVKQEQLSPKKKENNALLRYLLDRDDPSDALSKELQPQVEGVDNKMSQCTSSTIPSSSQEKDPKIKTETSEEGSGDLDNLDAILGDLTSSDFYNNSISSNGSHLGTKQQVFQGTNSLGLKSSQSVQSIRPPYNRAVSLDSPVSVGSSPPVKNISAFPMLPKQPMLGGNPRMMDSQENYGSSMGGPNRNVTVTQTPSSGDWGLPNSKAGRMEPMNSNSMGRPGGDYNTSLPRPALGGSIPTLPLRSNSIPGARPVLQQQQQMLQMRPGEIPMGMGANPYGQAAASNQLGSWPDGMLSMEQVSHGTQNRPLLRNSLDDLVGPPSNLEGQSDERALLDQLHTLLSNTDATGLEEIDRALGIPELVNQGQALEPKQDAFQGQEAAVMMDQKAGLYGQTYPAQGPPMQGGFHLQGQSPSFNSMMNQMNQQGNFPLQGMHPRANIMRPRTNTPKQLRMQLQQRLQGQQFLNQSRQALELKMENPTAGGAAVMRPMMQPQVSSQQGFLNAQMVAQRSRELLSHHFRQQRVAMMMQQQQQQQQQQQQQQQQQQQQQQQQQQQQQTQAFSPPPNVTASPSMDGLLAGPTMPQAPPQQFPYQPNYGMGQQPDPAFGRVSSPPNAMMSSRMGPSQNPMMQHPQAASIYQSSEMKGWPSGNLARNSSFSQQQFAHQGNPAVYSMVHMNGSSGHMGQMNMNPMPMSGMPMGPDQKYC

[21] = biological target: Peroxisome proliferator-activated receptor gamma/Nuclear receptor coactivator 2 (Homo sapiens, UniProt P37231); format: functional;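 further: agonist potency for raising coactivator recruitment to the receptor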
Cytochrome P450 2C9 = Cytochrome P450 2C9 (Homo sapiens, UniProt P11712); details: Potency
Sequence of Cytochrome P450 2C9 (P11712 whole entry): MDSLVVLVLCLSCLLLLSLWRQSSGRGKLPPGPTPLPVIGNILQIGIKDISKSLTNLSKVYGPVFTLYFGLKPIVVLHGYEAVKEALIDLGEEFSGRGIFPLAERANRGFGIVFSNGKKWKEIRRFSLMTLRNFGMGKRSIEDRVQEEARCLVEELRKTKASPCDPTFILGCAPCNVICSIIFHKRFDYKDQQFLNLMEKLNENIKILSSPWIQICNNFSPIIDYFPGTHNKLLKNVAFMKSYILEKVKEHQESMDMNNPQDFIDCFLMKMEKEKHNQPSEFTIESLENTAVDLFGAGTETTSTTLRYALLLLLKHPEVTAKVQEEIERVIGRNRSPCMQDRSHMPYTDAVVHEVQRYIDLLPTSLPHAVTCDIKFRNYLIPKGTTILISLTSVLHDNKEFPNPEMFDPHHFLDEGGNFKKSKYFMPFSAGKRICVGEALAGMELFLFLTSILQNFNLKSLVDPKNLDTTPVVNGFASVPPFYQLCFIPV

Estrogen receptor = biological target: T3, Estrogen receptor (Homo sapiens, UniProt P03372);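 further: potency for inhibiting coactivator peptide recruitment to the receptor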
T3 sequence (P03372 whole entry): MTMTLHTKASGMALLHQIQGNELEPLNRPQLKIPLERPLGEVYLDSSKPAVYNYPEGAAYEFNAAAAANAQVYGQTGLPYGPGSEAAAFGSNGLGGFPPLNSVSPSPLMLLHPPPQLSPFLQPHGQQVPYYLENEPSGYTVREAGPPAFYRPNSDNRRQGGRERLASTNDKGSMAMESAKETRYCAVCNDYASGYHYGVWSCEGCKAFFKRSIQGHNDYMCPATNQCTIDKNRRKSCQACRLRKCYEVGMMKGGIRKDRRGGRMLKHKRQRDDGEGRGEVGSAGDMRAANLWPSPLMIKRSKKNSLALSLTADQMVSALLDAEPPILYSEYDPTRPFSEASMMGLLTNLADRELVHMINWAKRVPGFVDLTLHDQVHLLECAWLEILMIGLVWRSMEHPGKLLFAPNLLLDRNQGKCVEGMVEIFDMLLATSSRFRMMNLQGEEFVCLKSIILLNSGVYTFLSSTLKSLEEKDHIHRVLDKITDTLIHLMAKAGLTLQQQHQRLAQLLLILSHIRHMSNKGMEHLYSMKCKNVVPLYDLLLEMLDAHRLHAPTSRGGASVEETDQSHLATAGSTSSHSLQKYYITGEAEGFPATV

cells [22] = experiment: cells; remark: listed apart in the source

Sequence of Cytochrome P450 2D6 (P10635 whole entry): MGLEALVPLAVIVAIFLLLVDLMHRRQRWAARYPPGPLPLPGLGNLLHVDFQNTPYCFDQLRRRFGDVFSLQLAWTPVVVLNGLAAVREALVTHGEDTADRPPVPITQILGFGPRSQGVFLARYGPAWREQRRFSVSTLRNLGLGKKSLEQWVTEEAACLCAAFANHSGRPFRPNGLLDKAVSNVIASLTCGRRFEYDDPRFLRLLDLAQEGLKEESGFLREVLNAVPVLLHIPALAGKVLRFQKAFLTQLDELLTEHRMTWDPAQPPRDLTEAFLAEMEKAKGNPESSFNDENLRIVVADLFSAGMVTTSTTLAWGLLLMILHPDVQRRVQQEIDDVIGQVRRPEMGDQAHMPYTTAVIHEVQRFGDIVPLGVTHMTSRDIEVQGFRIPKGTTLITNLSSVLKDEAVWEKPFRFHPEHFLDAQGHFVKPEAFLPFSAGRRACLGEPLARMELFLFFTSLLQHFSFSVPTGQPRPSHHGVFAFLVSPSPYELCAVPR

Structure (SMILES): CC12C=C(/C=C/C=C/c3ccccc3)C(C)(C1)C(/C=C/c1ccccc1)CC2=O (centres undefined)
- AC50 (Cytochrome P450 2D6): 3.16 µM (inconclusive)

Structure (SMILES): Cn1c2c(c(=O)n(C)c1=O)C(C(F)(F)F)(C(F)(F)F)NC(c1ccc(Cl)cc1)=N2
- AC50 [1]: 1.47 µM (active)
- EC50 [2]: 0.628 µM (active)
- AC50 [3]: 2.03 µM (active)
- IC50 [4]: 2.72 µM (active)
- AC50 (INS1): 0.983 µM (active)
- EC50 [5]: 3.25 µM (active)
- IC50 [6]: 3.79 µM (active)
- AC50 (Cytochrome P450 1A2): 17.8 µM (inconclusive)
- AC50 (Cytochrome P450 2C19): 2.82 µM (inconclusive)
- EC50 [7]: 2.61 µM (active)
- IC50 [8]: > 80 µM (inactive)
- AC50 [9]: 0.756 µM (active)
- EC50 [10]: 0.383 µM (active)
- AC50 (Cytochrome P450 3A4): 15.8 µM (inconclusive)
- EC50 [11]: 2.83 µM (active)

Structure (SMILES): COC(=O)c1ccc(NC(=O)CSc2n[nH]c(-c3ccncc3)n2)cc1
- IC50 (Hexokinase HKDC1): 17.6 µM (active)

Structure (SMILES): O=C(/C=C/c1ccc(Cl)cc1Cl)NCc1ccncc1
- EC50 [12]: > 50 µM (active)

Structure (SMILES): Cn1c2ccccc2c(=O)c2c(=O)n(-c3ccc(F)cc3)c(-c3cccs3)nc21
- EC50 [13]: 9.47 µM (active)
- IC50 (Hexokinase HKDC1): 2.72 µM (active)
- EC50 (Streptococcus): 9.21 µM (active)

Structure (SMILES): CCOC(=O)c1sc(NC(=O)c2cc3ccccc3o2)nc1C
- IC50 [14]: > 39.8 µM (not active)

Structure (SMILES): CCC(C)C(=O)N[C@@H](c1ccccc1)[C@@H](O)C(=O)O[C@H]1C[C@@]2(O)[C@@H](OC(=O)c3ccccc3)C3[C@](C)(C(=O)[C@H](OC(C)=O)C(=C1C)C2(C)C)[C@@H](O)C[C@H]1OC[C@@]31OC(C)=O (some centres undefined)
- EC50 [15]: < 0.1 µM (active)
- EC50 (cells [16]): 0.025 µM (active)
- IC50 [4]: 0.244 µM (active)
- EC50 [17]: 6.26 µM (active)
- IC50 [8]: > 80 µM (inactive)

Structure (SMILES): COc1ccc(OC)c(-c2cc(C(=O)Nc3c(C)nn(Cc4ccccc4C)c3C)no2)c1
- CC50 [18]: 34.7 µM (active)

Structure (SMILES): CCc1ccc(OCC(=O)NNC(=O)CSc2ncnc3sc(C)c(C)c23)cc1
- EC50 [19]: 28.8 µM (not active)
- EC50 [20]: 33.8 µM (not active)
- EC50 [21]: 25.7 µM (not active)

Structure (SMILES): CC(C)C[C@@H](CC(=O)N[C@@H](CCCN)CC(=O)N[C@@H]1CCNC[C@H]1C(=O)N[C@H](CC(=O)N[C@@H](CCC(=O)O)CC(=O)O)CC(C)C)NC(=O)[C@@H]1CCCC[C@H]1N
- AC50 (Cytochrome P450 2C9): 12.6 µM (inconclusive)

Structure (SMILES): C#Cc1ccc([C@@H]2C=C(C(=O)N3CCN(Cc4ccccc4)CC3)O[C@H](OCCCCO)C2)cc1
- AC50 (INS1): 1.01 µM (active)
- EC50 [5]: 9.17 µM (active)
- IC50 [8]: > 80 µM (inactive)
- IC50 [14]: > 39.8 µM (not active)
- EC50 [10]: 9.88 µM (active)
- EC50 [11]: 7.64 µM (active)

Structure (SMILES): COc1cc(OC)cc([C@H](CNc2ncnc3c2ncn3[C@@H]2O[C@@H](CO)[C@H](O)[C@@H]2O)c2ccccc2C)c1
- AC50 (Cytochrome P450 2C9): 0.0158 µM (inconclusive)
- AC50 (Cytochrome P450 2D6): 39.8 µM (inconclusive)

Structure (SMILES): CC(C)(C)c1nnc(NC(=O)CN2C(=O)C3C4C=CC(C4)C3C2=O)s1 (centres undefined)
- EC50 [19]: > 79.4 µM (not active)
- EC50 [20]: > 79.4 µM (not active)
- EC50 [21]: > 79.4 µM (not active)

Structure (SMILES): COC(=O)Oc1c(Br)c(=O)oc2ccccc12
- IC50 (Estrogen receptor): > 50 µM (not active)

Structure (SMILES): C/C(N)=C(/C#N)C(=O)COC(=O)c1cc2c(s1)CCCC2
- IC50 (cells [22]): 21.3 µM (active)

Structure (SMILES): CCCCOc1ccc(/C=N/Nc2cc(N3CCOCC3)nc(C)n2)cc1
- EC50 [15]: 2.46 µM (active)
- CC50 [18]: > 40 µM (active)
- EC50 [17]: > 60 µM (not active)

Structure (SMILES): O=C(N/N=C/C1CC=CCC1)c1cc(Br)ccc1O (centres undefined)
- EC50 [12]: > 50 µM (active)
